The target of one experiment is PIK3Cγ_h (Homo sapiens (Human), UniProt P48736). In words: KINOMEscan enzyme binding assay, PIK3Cγ. To be noted: DiscoveRx. As to the method:
(§1) Enzyme Binding Assays (KINOMEscan®) Kinase enzyme binding affinities of compounds disclosed herein were determined using the KINOMEscan technology performed by DiscoveRx Corporation, San Diego, Calif., USA (www.kinomescan.com).

The target in the next experiment is PIK3Cβ_h (Homo sapiens (Human), UniProt P42338). In words: KINOMEscan enzyme binding assay, PIK3Cβ. The settings on record: DiscoveRx. As to the method:
(§2) Enzyme Binding Assays (KINOMEscan®) Kinase enzyme binding affinities of compounds disclosed herein were determined using the KINOMEscan technology performed by DiscoveRx Corporation, San Diego, Calif., USA (www.kinomescan.com). Table A reports the obtained Kd values (nM), with the Kd being the inhibitor binding constant: […]

For experiment [1], the system named is Akt phosphorylated at Ser473 in PC-3 cells. In words: Cellular assay: phosphorylation of Akt (Ser473) in PC-3 cells, MSD ELISA. The experiment is classed as cell-based. To be noted: Homo sapiens, PC-3, 1 h, 60 min incubation with compound, read-out: IC50 pAkt_S473. In outline: (§3)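 PC-3 cells cultured 24 h in DMEM/10% FCS were exposed to compound for 60 min at 37° C, with 0.3% DMSO. Lysates were analysed by MSD electrochemiluminescent sandwich ELISA using phospho-Ser473 or phospho-Thr308 capture and anti-total Akt detection antibodies. IC50 was derived by nonlinear sigmoidal fitting of % inhibition over five concentrations.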
In general terms: An ELISA detects its analyte on a solid surface through an enzyme-linked reagent.

Another experiment addresses MTOR_h (Homo sapiens (Human), UniProt P42345). In words: KINOMEscan enzyme binding assay, MTOR. To be noted: DiscoveRx. As to the method: as §1
In the next experiment the target is PIK3Cδ_h (Homo sapiens (Human), UniProt O00329). Put plainly: KINOMEscan enzyme binding assay, PIK3Cδ. The settings on record: DiscoveRx. As to the method:
as §2

The target in the next experiment is PIK3Cα_h (Homo sapiens (Human), UniProt P42336). Put plainly: KINOMEscan enzyme binding assay, PIK3Cα. To be noted: DiscoveRx. As to the method:
as §1

The subject of experiment [2] is Akt phosphorylated at Thr308 in PC-3 cells. In words: Cellular assay: phosphorylation of Akt (Thr308) in PC-3 cells, MSD ELISA. The experiment is classed as cell-based. The settings on record: Homo sapiens, PC-3, 1 h, 60 min incubation with compound, read-out: IC50 pAkt_Thr308. In outline:
as §3

Molecules are shown by their SMILES.

Sequence of PIK3Cβ_h (P42338 whole entry): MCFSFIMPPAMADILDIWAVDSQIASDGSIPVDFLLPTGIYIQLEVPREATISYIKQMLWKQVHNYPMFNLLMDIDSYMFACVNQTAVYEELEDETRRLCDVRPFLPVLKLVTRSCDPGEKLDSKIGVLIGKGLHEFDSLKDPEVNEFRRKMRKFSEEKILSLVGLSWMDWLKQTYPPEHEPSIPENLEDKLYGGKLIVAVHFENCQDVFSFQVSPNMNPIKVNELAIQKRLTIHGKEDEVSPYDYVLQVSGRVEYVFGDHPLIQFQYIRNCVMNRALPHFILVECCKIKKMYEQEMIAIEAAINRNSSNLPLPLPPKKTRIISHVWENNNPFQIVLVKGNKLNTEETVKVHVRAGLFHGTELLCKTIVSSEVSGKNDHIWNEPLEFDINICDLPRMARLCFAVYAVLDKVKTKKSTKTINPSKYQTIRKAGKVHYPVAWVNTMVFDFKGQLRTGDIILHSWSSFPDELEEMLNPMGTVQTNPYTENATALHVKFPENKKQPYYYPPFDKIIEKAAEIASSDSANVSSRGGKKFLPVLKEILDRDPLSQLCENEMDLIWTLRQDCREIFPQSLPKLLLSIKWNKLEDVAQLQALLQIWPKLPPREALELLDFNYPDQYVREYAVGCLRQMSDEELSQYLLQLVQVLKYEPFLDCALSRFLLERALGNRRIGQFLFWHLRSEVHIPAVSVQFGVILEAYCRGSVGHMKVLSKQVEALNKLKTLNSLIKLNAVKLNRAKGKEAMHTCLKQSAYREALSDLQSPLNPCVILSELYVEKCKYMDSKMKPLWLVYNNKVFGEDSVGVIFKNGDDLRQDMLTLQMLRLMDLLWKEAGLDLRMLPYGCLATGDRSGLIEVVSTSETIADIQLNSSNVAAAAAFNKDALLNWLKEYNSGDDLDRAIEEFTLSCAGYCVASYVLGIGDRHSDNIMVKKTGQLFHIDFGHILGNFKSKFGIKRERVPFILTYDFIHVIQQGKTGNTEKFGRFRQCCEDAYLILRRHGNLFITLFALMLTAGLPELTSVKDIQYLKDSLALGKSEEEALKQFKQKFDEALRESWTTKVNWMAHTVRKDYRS
Sequence of PIK3Cγ_h (P48736 whole entry): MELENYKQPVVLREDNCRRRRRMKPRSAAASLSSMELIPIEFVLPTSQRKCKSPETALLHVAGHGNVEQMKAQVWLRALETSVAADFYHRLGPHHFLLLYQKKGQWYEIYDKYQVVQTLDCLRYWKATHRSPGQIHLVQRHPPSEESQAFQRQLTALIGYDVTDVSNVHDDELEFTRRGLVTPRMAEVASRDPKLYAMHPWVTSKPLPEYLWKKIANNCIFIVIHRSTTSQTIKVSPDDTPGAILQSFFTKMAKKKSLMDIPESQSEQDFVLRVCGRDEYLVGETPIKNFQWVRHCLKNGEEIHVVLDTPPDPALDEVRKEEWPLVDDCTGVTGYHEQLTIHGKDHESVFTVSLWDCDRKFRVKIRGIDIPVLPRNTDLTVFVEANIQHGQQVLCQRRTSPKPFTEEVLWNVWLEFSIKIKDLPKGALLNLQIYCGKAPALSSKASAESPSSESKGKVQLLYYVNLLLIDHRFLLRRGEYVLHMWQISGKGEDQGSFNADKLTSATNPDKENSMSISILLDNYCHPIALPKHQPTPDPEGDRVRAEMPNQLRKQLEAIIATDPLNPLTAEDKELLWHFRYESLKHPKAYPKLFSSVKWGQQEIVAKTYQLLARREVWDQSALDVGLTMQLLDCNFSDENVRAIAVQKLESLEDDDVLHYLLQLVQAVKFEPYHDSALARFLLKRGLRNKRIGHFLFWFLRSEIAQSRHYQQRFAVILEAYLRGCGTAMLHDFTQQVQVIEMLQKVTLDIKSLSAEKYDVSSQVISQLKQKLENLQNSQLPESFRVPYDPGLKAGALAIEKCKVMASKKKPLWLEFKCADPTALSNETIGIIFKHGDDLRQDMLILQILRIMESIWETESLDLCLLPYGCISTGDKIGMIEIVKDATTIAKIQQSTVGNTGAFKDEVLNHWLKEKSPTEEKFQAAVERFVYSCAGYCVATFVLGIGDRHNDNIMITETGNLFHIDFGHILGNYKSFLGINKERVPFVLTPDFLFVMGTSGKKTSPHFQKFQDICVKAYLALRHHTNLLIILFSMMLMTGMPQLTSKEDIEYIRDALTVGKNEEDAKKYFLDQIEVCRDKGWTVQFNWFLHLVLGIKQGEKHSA
Sequence of PIK3Cδ_h (O00329 whole entry): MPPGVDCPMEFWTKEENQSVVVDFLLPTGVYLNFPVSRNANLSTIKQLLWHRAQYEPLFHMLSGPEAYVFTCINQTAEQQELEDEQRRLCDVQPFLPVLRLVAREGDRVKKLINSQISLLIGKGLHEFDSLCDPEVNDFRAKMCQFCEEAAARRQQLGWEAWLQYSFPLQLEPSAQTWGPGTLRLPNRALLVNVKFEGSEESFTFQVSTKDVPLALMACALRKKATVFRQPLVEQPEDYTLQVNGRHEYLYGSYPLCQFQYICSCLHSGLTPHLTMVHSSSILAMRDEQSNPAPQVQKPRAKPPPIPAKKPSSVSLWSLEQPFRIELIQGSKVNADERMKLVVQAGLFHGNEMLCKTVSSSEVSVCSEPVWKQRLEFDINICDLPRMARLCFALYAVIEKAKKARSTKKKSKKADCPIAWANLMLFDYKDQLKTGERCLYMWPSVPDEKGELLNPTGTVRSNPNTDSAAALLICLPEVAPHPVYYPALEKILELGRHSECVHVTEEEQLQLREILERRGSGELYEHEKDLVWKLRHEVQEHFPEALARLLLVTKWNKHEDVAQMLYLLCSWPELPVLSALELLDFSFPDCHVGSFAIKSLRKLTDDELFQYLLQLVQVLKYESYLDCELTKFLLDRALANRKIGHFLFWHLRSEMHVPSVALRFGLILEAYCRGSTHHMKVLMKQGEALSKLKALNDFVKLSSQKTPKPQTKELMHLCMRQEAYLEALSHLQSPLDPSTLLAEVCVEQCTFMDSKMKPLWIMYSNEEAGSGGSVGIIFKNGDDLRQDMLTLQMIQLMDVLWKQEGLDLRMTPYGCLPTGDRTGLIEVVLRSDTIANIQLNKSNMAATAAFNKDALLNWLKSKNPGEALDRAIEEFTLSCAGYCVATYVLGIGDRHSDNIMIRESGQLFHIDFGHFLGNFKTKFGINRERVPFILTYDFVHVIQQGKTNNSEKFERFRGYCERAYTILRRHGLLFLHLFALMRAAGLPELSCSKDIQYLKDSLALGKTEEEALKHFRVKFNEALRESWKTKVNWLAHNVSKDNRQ
Sequence of PIK3Cα_h (P42336 whole entry): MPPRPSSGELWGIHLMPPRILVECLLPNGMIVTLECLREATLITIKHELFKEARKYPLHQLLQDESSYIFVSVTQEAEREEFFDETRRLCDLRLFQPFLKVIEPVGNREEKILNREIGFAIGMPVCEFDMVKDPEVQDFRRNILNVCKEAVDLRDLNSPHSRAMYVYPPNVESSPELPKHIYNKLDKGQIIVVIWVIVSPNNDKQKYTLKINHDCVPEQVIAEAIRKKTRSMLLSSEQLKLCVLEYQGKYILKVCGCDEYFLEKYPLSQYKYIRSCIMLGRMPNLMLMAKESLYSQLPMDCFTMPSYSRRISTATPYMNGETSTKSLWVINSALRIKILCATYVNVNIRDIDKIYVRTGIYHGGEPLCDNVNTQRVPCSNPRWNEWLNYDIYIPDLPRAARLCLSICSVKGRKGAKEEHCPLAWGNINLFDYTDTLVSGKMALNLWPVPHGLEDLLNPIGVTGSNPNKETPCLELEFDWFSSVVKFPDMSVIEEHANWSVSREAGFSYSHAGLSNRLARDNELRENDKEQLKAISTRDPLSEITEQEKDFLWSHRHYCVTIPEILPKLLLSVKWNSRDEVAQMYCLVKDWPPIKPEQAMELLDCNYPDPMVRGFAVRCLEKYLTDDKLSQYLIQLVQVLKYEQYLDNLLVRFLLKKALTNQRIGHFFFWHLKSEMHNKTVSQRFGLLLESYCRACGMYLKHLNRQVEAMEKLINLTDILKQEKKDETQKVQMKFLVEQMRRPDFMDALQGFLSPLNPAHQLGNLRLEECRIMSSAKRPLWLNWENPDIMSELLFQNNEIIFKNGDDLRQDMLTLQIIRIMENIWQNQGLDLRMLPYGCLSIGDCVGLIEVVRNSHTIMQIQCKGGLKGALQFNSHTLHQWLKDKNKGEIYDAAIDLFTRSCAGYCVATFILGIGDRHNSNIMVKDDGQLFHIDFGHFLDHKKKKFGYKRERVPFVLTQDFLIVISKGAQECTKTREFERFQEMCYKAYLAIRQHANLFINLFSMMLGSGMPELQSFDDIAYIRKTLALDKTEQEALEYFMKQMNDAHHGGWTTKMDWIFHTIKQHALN

By Kd is commonly meant a measure of binding affinity in units of concentration. The term IC50 denotes the concentration that inhibits the measured activity by half. For `CC(=O)NCc1nc2c(-c3ncc[nH]3)cc(N3CCOCC3)nn2c1Cc1cccc(C(F)(F)F)c1C` [Compound 18], the Kd on PIK3Cγ_h was > 30200 nM; on PIK3Cβ_h, 2 nM; on MTOR_h, > 30200 nM; on PIK3Cδ_h it was 59 nM; on PIK3Cα_h it was > 30200 nM. In addition, the IC50 in experiment [1] was 33 nM; in experiment [2], 11 nM.

For the compound `Cc1c(Cc2c(CN)nc3c(N)cc(N4CCOCC4)nn23)cccc1C(F)(F)F` [Compound 85], the Kd at PIK3Cγ_h was 7480 nM; on PIK3Cβ_h it was 0.7 nM; at MTOR_h, 2680 nM; on PIK3Cδ_h, 75 nM; at PIK3Cα_h, > 23000 nM. For the same compound, the IC50 in experiment [1] came to 115 nM; in experiment [2], 86 nM.

`Cc1nc2c(-c3ccn[nH]3)cc(N3CCOCC3)nn2c1Cc1cccc(C(F)(F)F)c1C` [Compound 8]: the Kd at PIK3Cγ_h stood at 14500 nM; at PIK3Cβ_h, 31 nM; at MTOR_h it was 525 nM; at PIK3Cδ_h it was 891 nM; at PIK3Cα_h, 30200 nM. For the same compound, the figures for the half-maximal inhibitory concentration (IC50) in experiment [1] and in experiment [2] were 263 nM and 204 nM, respectively.

Turning to `Cc1nc2c(N)cc(N3CCOCC3)nn2c1Cc1cccc(F)c1C1CCNCC1` [Compound 106], the Kd on PIK3Cγ_h is 5010 nM; at PIK3Cβ_h, 0.5 nM; at MTOR_h it was > 30200 nM; on PIK3Cδ_h, 372 nM; on PIK3Cα_h, 2750 nM. In addition, the IC50 in experiment [1] is 174 nM; in experiment [2], 129 nM.

On to `Cc1nc2c(C(=O)O)cc(N3CCOCC3)nn2c1Cc1cccc(Cl)c1C` [Compound 13], for which the Kd was 3550 nM on PIK3Cγ_h; 0.5 nM at PIK3Cβ_h; 9550 nM at MTOR_h; 56 nM at PIK3Cδ_h; 525 nM on PIK3Cα_h. Moreover, the IC50 in experiment [1] was > 513 nM; in experiment [2], ~263 nM.

As to `Cc1nc2c(-c3cnc[nH]3)cc(N3CCOCC3)nn2c1Cc1cccc(C(F)(F)F)c1C` [Compound 5], the Kd turned out to be 10200 nM on PIK3Cγ_h; 6 nM at PIK3Cβ_h; 2400 nM on MTOR_h; 316 nM at PIK3Cδ_h; 617 nM on PIK3Cα_h. The IC50 in experiment [1] is ~59 nM; in experiment [2] it was ~48 nM.

For `Cc1nc2c(N)cc(N3CCOCC3)nn2c1Cc1cccc(F)c1C1CCN(CCO)CC1` [Compound 107], the Kd at PIK3Cγ_h was determined as 8710 nM; on PIK3Cβ_h, 12 nM; on MTOR_h, 11500 nM; at PIK3Cδ_h it was 355 nM; on PIK3Cα_h, 11700 nM. Besides, the IC50 was 158 nM in experiment [1] and 115 nM in experiment [2].

`Cc1c(Cc2c(CO)nc3c(-c4ccn[nH]4)cc(N4CCOCC4)nn23)cccc1C(F)(F)F` [Compound 21]: the Kd is 617 nM on PIK3Cγ_h; 9 nM on PIK3Cβ_h; 178 nM on MTOR_h; 240 nM at PIK3Cδ_h; 1580 nM on PIK3Cα_h. The IC50 came out at 148 nM in experiment [1] and 50 nM in experiment [2].

With `Cc1nc2c(N)cc(N3CCOCC3)nn2c1Nc1cccc(C(F)(F)F)c1CN1CC(O)C1` [Compound 52], the Kd on PIK3Cγ_h stood at 4790 nM; at PIK3Cβ_h it was 1.9 nM; on MTOR_h, 10700 nM; on PIK3Cδ_h, 40 nM; on PIK3Cα_h, 5750 nM. Also, the results for the IC50 in experiment [1] and in experiment [2] were 44 nM and 33 nM, respectively.

As to `Cc1nc2c(-c3c[nH]cn3)cc(N3CCOCC3)nn2c1Nc1cccc(F)c1C` [Compound 50], the Kd at PIK3Cγ_h came to 1260 nM; on PIK3Cβ_h, 1.3 nM; on MTOR_h, 776 nM; on PIK3Cδ_h it was 33 nM; on PIK3Cα_h it was 537 nM. In addition, the IC50 in experiment [1] turned out to be 60 nM; in experiment [2], 38 nM.

Take `CCc1c(F)cccc1Cc1c(CO)nc2c(N)cc(N3CCOCC3)nn12` [Compound 99]: the Kd was found to be 3310 nM at PIK3Cγ_h; 8.3 nM on PIK3Cβ_h; 1620 nM at MTOR_h; 832 nM at PIK3Cδ_h; 10500 nM at PIK3Cα_h. The IC50 in experiment [1] worked out at 257 nM; in experiment [2], 200 nM.

Values taken from US10087187B2, “Imidazopyridazine derivatives as PI3KB inhibitors” (Janssen Pharmaceutica NV, priority 2014, dated 2018).
